Data set [1] has as its system urinary excretion dysfunction models. As to the kind of experiment: Urinary excretion dysfunction models, maximal urinary flow rate. Particulars: 60 ng/kg/h continuous intravenous, cynomolgus monkey urinary excretion dysfunction model. Type of data set: in vivo. An excerpt:
Urinary excretion dysfunction models were constructed in accordance with the following procedure. After anesthesia of cynomolgus monkeys, the region from the suprapubic area to the abdominal area was shaved, followed by fixing in a dorsal position. The shaved region was disinfected and the four legs were fixed. Using an electrosurgical knife, the skin region from the suprapubic area to the umbilical area and the peritoneal membrane were sequentially incised, followed by damage to the pelvic nerve and removal of the uterus. After the surgical operation, viccillin-containing physiological saline was added dropwise to the incised area. The peritoneal membrane and skin of the incised area were sutured with silk threads and disinfected. Viccillin was administered for 7 consecutive days after surgery. Meloxicam was administered once daily for 7 consecutive days to manage pain in the perioperative period.
The cynomolgus monkeys were seated on monkey chairs, followed by retention of the hands and legs with strings. Injectable water was administered orally, and physiological saline and the test compound (60 ng/kg/h) were continuously administered intravenously to allow urination freely. The maximal urinary flow rate was measured using a urine weighing sensor.

The test system of data set [2] is spontaneously hypertensive rats. As to the kind of experiment: Blood pressure and heart rate measurement in hypertensive rats. Type of data set: in vivo, rat. The following applies: continuous intravenous administration for 30 min. As to the method: The blood pressures and heart rates of male spontaneously hypertensive rats were measured. On the day of measurement, indwelling of catheters for blood pressure•heart rate measurement and subject substance administration was carried out under anesthesia with ether. The back of the neck of each rat was incised, a feeding catheter (Atom Medical Corporation) filled with heparinized physiological saline was introduced from the back of the neck; the catheter was inserted into the common carotid artery and internal jugular vein; and the surgical incision was closed. The measurements were conducted in a Bollmann cage under the conscious state and evaluations were carried out after confirming that the individual parameters were stabilized. After confirming the stabilization of blood pressure and heart rate, the test compound was continuously administered intravenously at a flow rate of 5 mL/kg/h for 30 min.
The catheter drawn from the back of the neck was connected to a pressure transducer (DX-200, NIHON KOHDEN CORP.), and the blood pressures and heart rates were measured using a blood pressure amplifier (Gould instrument). The blood pressures and heart rates were recorded on recording paper using a recorder (LINEARCORDER WR3320, GRAPHTEC). The blood pressures and heart rates were converted into values on the recording paper before administration and 2.5, 5, 10, 15, 30, 45 and 60 min after administration. For each individual, rates of increase and decrease in the parameters were evaluated relative to the value before administration (value at 0 min).

A further data set relates to normal rats. As to the kind of experiment: Blood pressures and heart rates in normal rats. Particulars: oral. Type of data set: in vivo, rat. As to the method:
The blood pressures and heart rates of female Wistar rats were measured in accordance with the following procedure. On the day of measurement, indwelling of catheters for blood pressure•heart rate measurement was carried out under anesthesia with ether. The back of the neck of each rat was incised; a feeding catheter (Atom Medical Corporation) filled with heparinized physiological saline was introduced from the back of the neck; the catheter was inserted into the common carotid artery; and the surgical incision was closed. The measurements were carried out in a Bollmann cage under the conscious state, and the evaluations were carried out after confirming that the individual parameters were stabilized. After confirming the stabilization of blood pressure and heart rate, the test compound which was prepared using injectable water containing equimolar NaOH was orally administered at a dose of 5 mL/kg.
The catheter drawn from the back of the neck was connected to a pressure transducer (DX-200, NIHON KOHDEN CORP.), and the blood pressures and heart rates were measured using an amplifier for pressure measurement (Gould Instrument). The blood pressures and heart rates were recorded using a recorder (LINEARCORDERWR3320, GRAPHTEC). For each individual, rates of increase and decrease in average blood pressure and heart rate before administration and 30, 60, 120, and 180 min after administration were calculated with respect to the values of each individual before administration. Changes in blood pressure and heart rate before and after administration of the test compound were evaluated.

In the next data set the test system is bladder detrusor. As to the kind of experiment: Contraction of isolated rat bladder strip specimens (Magnus system), KCl-induced contraction. The class given is cell-based. Particulars: for Contractility of the bladder detrusor according to the compound concentration treated: rat bladder strip. As to the method:
Rats were anesthetized with pentobarbital, followed by abdominal incision to remove the bladders and the urethras. The bladder bodies were cut in the longitudinal direction to prepare strip specimens with a size of about 10×3 mm. Additionally, each of the urethras was also cut in the longitudinal direction to prepare specimens with a size of about 10×3 mm. The prepared specimens were suspended in Krebs buffer (37° C., 5 mL), which was aerated with a mixed gas of 95% O2 and 5% CO2. The tension values of the specimens were measured using a Magnus system equipped with an isometric transducer and an amplifier, and the measured values were recorded on a computer via a data collection system.
The specimens were suspended with a load of about 0.5 g. More than 1 hr later, potassium chloride (100 mmol/L) was added and the maximal contraction response was observed. After washing with Krebs buffer, the specimens were suspended with a load of about 0.5 g for stabilization. A potassium chloride solution (7.5 mmol/L) was added to induce the contraction of the specimens. After the contraction-inducing response was stabilized, the test compound was added in a cumulative manner and the response was observed before and after the treatment with the drug.

The structures appear in SMILES notation.

As to `C[C@@](O)(C/C=C/[C@H]1CCC(=O)[C@@H]1CCSc1nc(C(=O)O)cs1)CCC(F)=C(F)F` [Compound 17, 2-[(2-{(1R,5R)-2-oxo-5-[(1E,4S)-7,8,8-trifluoro-4-hydroxy-4-methyl-1,7-octadien-1-yl]cyclopentyl}ethyl)thio]-1,3-thiazole-4-carboxylic acid], in data set [1], the “improvement in maximal urinary flow rate over the vehicle group” value came out at 61%. Further, the “effect on the blood pressure” value (in data set [2]; in the data set with normal rats (0.3 mg/kg); in the data set with normal rats (1 mg/kg)) was “no effect” throughout. Further, the “effect on the heart rate” value with normal rats (0.3 mg/kg) is listed as “no effect”. In addition, the “Contractility of the bladder detrusor according to the compound concentration treated” value is 3 % of 7.5 mmol/L KCl with bladder detrusor (0 nmol/L); −2 % of 7.5 mmol/L KCl in the data set with bladder detrusor (1 nmol/L); 23 % of 7.5 mmol/L KCl in the data set on bladder detrusor (10 nmol/L); 100 % of 7.5 mmol/L KCl with bladder detrusor (100 nmol/L); 180 % of 7.5 mmol/L KCl in the data set with bladder detrusor (1 μmol/L); 259 % of 7.5 mmol/L KCl in the data set on bladder detrusor (10 μmol/L). Further, the “effect on the bladder detrusor” value with bladder detrusor (summary in words of Table 1) is “contracted the bladder detrusor”.

The values are drawn from US9150528B2, “Compound having detrusor muscle-contracting activity and urethral sphincter muscle-relaxing activity” (ONO PHARMACEUTICAL CO., LTD., priority 2009, dated 2015).
